This experiment concerns HepG2. Description: Cell cycle arrest in human HepG2 cells assessed as accumulation at G2/M phase at 0.8 uM measured after 24 hrs by propidium iodide staining based flow cytometry (reference value: 19.93%). It counts as functional. A general note: In flow cytometry, cells or beads pass a laser one at a time.

Structures are written as SMILES.

For 1 compound, Activity results are on record in ChEMBL document CHEMBL5113500, “New brefeldin A-cinnamic acid ester derivatives as potential antitumor agents: Design, synthesis and biological evaluation” (Eur J Med Chem, 2022).

As for `C[C@H]1CCC/C=C/[C@@H]2C[C@H](O)C[C@H]2[C@H](OC(=O)/C=C/c2ccc(N(C)C)cc2)/C=C/C(=O)O1`, the Activity came to 15.85%.
